{"source": "paper PMC2742306", "about": "(Molecular cell, 2009)", "molecules": {"B1": {"name": "RseA: 35S-labeled variant of the periplasmic domain of E. coli RseA (residues 121–216) with a C-terminal His6 tag (protein)", "chain": "YNGQSETSQQPETPVFNTLPMMGKASPVSLGVPSEATANNGQQQQVQEQRRRINAMLQDYELQRRLHSEQLQFEQAQTQQAAVQVPGIQTLGTQSQ", "modifications": "35S-labeled; left off: His6, C-terminal, state not stated"}}, "key": {"[1]": {"biological_target": "T1, wild-type DegS (Escherichia coli, UniProt P0AEE3)", "T1 sequence (P0AEE3 27-355)": "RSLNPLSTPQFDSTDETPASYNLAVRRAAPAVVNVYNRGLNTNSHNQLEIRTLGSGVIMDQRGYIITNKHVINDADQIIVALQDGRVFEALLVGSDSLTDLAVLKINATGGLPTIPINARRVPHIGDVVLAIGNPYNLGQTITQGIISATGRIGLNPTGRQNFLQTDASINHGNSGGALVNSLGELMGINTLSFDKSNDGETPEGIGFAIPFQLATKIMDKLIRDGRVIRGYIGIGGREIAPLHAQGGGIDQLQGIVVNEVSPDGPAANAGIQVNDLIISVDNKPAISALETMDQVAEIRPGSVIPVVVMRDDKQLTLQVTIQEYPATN", "format": "biochemical, E. coli", "details": "wild-type DegS 0.9 μM trimer; 20 μM rhodamine-FP; saturating peptide"}, "[2]": {"biological_target": "T1, wild-type DegS", "details": "saturating peptide, ref Sohn et al. (2007); cited from earlier work"}, "[3]": {"biological_target": "K243D/M319A double mutant of DegS (Escherichia coli, UniProt P0AEE3, K243D/M319A)", "format": "biochemical, E. coli", "details": "saturating peptide"}, "[4]": {"biological_target": "T1, wild-type DegS", "format": "biochemical, E. coli"}, "[5]": {"biological_target": "K243D/D320A mutant of DegS (Escherichia coli, UniProt P0AEE3, D320A/K243D)", "sequence (P0AEE3 27-355 K243D/D320A)": "as the sequence (P0AEE3 27-355) above, with K217D, D294A counted along it", "format": "biochemical, E. coli"}, "[6]": {"biological_target": "T2, K243D mutant of DegS (Escherichia coli, UniProt P0AEE3, K243D)", "T2 sequence (P0AEE3 27-355 K243D)": "as the sequence (P0AEE3 27-355) above, with K217D counted along it", "assay": "Global fit to MWC allosteric model, K243D DegS", "format": "biochemical, E. coli", "details": "K243D, MWC global fit"}, "[7]": {"biological_target": "T3, D320A DegS (Escherichia coli, UniProt P0AEE3, D320A)", "T3 sequence (P0AEE3 27-355 D320A)": "as the sequence (P0AEE3 27-355) above, with D294A counted along it", "assay": "OMP-peptide activation of RseA cleavage by D320A DegS", "format": "biochemical, E. coli"}, "[8]": {"biological_target": "T3, D320A DegS", "assay": "Global fit to MWC allosteric model, D320A DegS", "format": "biochemical, E. coli", "details": "D320A, MWC global fit"}, "[9]": {"biological_target": "T2, K243D mutant of DegS", "format": "biochemical, E. coli"}, "[10]": {"biological_target": "T3, D320A DegS", "format": "biochemical, E. coli"}, "[11]": {"biological_target": "T1, wild-type DegS", "details": "200 μM RseA, ref Sohn et al. (2007); cited from earlier work"}, "[12]": {"biological_target": "T4, DegS K243D/M319A double mutant (residues 27–355, N-terminal His6 tag) (E. coli, UniProt P0AEE3 27-355, K243D | M319A)", "T4 sequence (looked up)": "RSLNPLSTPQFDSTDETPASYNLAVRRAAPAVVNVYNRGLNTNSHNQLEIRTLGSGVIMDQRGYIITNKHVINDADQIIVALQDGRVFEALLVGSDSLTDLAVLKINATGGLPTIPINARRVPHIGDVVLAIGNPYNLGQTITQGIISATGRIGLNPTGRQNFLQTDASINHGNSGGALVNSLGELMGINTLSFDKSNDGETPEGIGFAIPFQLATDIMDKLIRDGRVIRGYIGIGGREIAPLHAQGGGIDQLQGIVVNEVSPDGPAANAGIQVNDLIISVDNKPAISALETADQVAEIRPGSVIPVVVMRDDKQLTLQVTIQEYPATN", "assay": "fluorescence polarisation"}, "[13]": {"biological_target": "T5, DegS M319A (residues 27–355, N-terminal His6 tag) (E. coli, UniProt P0AEE3 27-355, M319A)", "T5 sequence (looked up)": "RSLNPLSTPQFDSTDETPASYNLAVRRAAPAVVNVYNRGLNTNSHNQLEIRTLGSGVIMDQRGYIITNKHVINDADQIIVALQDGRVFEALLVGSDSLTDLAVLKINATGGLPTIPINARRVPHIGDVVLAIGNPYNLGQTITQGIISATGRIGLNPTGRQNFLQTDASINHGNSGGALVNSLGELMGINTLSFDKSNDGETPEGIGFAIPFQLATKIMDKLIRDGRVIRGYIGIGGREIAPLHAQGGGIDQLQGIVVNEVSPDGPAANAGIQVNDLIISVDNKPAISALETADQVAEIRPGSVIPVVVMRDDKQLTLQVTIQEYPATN", "assay": "fluorescence polarisation"}, "[14]": {"system": "DegS and its mutants", "assay": "Global fit to MWC allosteric model, RseA substrate binding", "format": "biochemical, E. coli"}, "[15]": {"details": "enzyme parameter, peptide-independent"}, "[16]": {"details": "peptide preference for relaxed state"}, "[17]": {"details": "same value for all enzymes and peptides"}}, "note": "No end group written: not given here. βAla = NCCC(=O)O", "data": [{"molecule": "DNRDGNVYYF [DNRDGNVYYF]", "values": [{"measurement": "rate of rhodamine-FP modification in presence of peptide (order)", "setting": "[1]", "result": "slower"}, {"measurement": "Hill Constant (RseA substrate)", "setting": "[2]", "result": "1.6 ± 0.2"}, {"measurement": "Vmax (RseA cleavage)", "setting": "[2]", "result": "1.1 ± 0.2", "unit": "s^−1enz^−1"}, {"measurement": "Hill Constant (RseA substrate)", "setting": "[3]", "result": "1.2 ± 0.1"}, {"measurement": "Vmax (RseA cleavage)", "setting": "[3]; 23 °C, pH 8.3", "result": "1.4 ± 0.1", "unit": "s^−1enz^−1"}, {"measurement": "L0, equilibrium constant T/R of unliganded enzyme", "setting": "[4]; MWC global fit, enzyme parameter, peptide-independent", "result": 15000}, {"measurement": "KTP/KRP", "setting": "[4]; MWC global fit, peptide preference for relaxed state", "result": 6.8}, {"measurement": "kr, rate constant for cleavage of RseA by substrate-bound R-state subunits", "setting": "[4]; MWC global fit, same value for all enzymes and peptides", "result": 3.3, "unit": "s⁻¹"}, {"measurement": "DegS molecules in active conformation", "setting": "[4]; saturating peptide and saturating RseA substrate, MWC model", "result": 45, "unit": "%"}, {"measurement": "Vmax (RseA cleavage)", "setting": "[5]; K243D/D320A 0.3 μM trimer, DNRDGNVYYF 30 μM, 23 °C, pH 8.3", "result": "2.0 ± 0.3", "unit": "s^−1enz^−1"}, {"measurement": "Hill Constant (RseA substrate)", "setting": "[5]; K243D/D320A, saturating OMP peptide", "result": "1.1 ± 0.1"}, {"measurement": "KRS, dissociation constant of RseA substrate for R-state subunit", "setting": "[6]; RseA, not peptide, binding", "result": 150, "unit": "µM"}, {"measurement": "KTS, dissociation constant of RseA substrate for T-state subunit", "setting": "[6]; RseA, not peptide, binding", "result": 505, "unit": "µM"}, {"measurement": "L0, equilibrium constant T/R of unliganded enzyme", "setting": "[6]; [15]", "result": 180}, {"measurement": "KTP/KRP", "setting": "[6]; [16]", "result": 2.0}, {"measurement": "kr, rate constant for cleavage of RseA by substrate-bound R-state subunits", "setting": "[6]; [17]", "result": 3.3, "unit": "s⁻¹"}, {"measurement": "EC50", "setting": "[7]", "result": "200 ± 100", "unit": "nM"}, {"measurement": "KRS, dissociation constant of RseA substrate for R-state subunit", "setting": "[8]; RseA, not peptide, binding", "result": 150, "unit": "µM"}, {"measurement": "KTS, dissociation constant of RseA substrate for T-state subunit", "setting": "[8]; RseA, not peptide, binding", "result": 505, "unit": "µM"}, {"measurement": "L0, equilibrium constant T/R of unliganded enzyme", "setting": "[8]; [15]", "result": 350}, {"measurement": "KTP/KRP", "setting": "[8]; [16]", "result": 3.3}, {"measurement": "kr, rate constant for cleavage of RseA by substrate-bound R-state subunits", "setting": "[8]; [17]", "result": 3.3, "unit": "s⁻¹"}, {"measurement": "Vmax (RseA cleavage)", "setting": "[9]; K243D 0.3 μM trimer, saturating peptide (DNRDGNVYYF 30 μM), 23 °C, pH 8.3", "result": "1.8 ± 0.2", "unit": "s^−1enz^−1"}, {"measurement": "Hill Constant (RseA substrate)", "setting": "[9]; K243D, saturating peptide", "result": "1.3 ± 0.1"}, {"measurement": "Vmax (RseA cleavage)", "setting": "[10]; D320A 0.3 μM trimer, saturating peptide (DNRDGNVYYF 30 μM), 23 °C, pH 8.3", "result": "2.5 ± 0.3", "unit": "s^−1enz^−1"}, {"measurement": "Hill Constant (RseA substrate)", "setting": "[10]; D320A, saturating peptide", "result": "1.1 ± 0.2"}, {"measurement": "Hill Constant (peptide activation)", "setting": "[11]", "result": "1.8 ± 0.2"}]}, {"molecule": "{fluoresceine-βAla}-KKDNRDGNYYF", "note": "[OMP peptide fluoresceine-β-alanine-KKDNRDGNYYF]", "values": [{"measurement": "Kd", "setting": "[12]", "result": 180, "unit": "nM"}, {"measurement": "Kd", "setting": "[13]", "result": 140, "unit": "nM"}]}, {"molecule": "B1", "values": [{"measurement": "preference for relaxed state in substrate-saturated trimer", "setting": "[14]", "result": "approximately 40 fold"}]}]}
